Where two headings read alike, the source gives them in different places.
How the values were obtained:
[1] = commercially available topical treatment of onychomycosis; cited from earlier work
[2] = for NaOM in 50 μL sample: 0.1 g nail pieces incubated 24 h at room temperature, extracted in 1 mL water for 24 h; for NaOM conc in sample: Extracting Solution
Description: These studies measured the penetration of stock solutions of sodium omadine in human fingernails. Sodium omadine (NaOM) 98% was obtained from Acros Organics, a division of Global Fisher Scientific.
Stock Solution #1. Dissolved 100 mg of NaOM in 100 mL of purified water (1.0 mg/mL).
Stock Solution #2. Diluted 2 mL of Stock Solution #1 to 100 mL of purified water (20 μg/mL).
Standard Solution #1 (2.50 μg/mL). Diluted 12.5 mL of Stock Solution #2 to 100 mL with purified water.
Standard Solution #2 (5.00 μg/mL). Diluted 25 mL of Stock Solution #2 to 100 mL with purified water.
Standard Solution #3 (7.50 μg/mL). Diluted 37.5 mL of Stock Solution #2 to 100 mL with purified water.
Standard Solution #4 (10.0 μg/mL). Diluted 50 mL of Stock Solution #2 to 100 mL with purified water.
Standard Solution #5 (20.0 μg/mL). No dilution was necessary, same as Stock Solution #2.
Nail clips, pooled from six human volunteers were cut into small pieces of approximately 0.5-1 mm×2-3 mm. The nail pieces, 0.1 g, were placed in each of the above solutions at room temperature and incubated for twenty-four hours. After incubation, the pieces were washed quickly three times with purified water to remove any residual solution on the nail surface. The pieces were then incubated in 1 mL of purified water for twenty-four hours at room temperature to extract the NaOM absorbed into the nail bed (“Extracting Solution”).
A standard curve of NaOM was made by measuring the absorption at 318 nm for a 500 μL sample containing 0.25, 0.50, 0.75, 1.0, and 2.0 μg of NaOM. An aliquot (50 μL) of each Standard Solution (#1-#5) was diluted to 500 μL with 1 mM cupric chloride (CuCl2). The standard solutions were freshly prepared and incubated at room temperature for fifteen minutes prior to spectrophotometric determination.
The amount of NaOM in each sample of Extracting Solution was determined at 318 nm. Similarly, a 50 μL aliquot of each Extracting Solution was diluted to 500 μL with 1 mM CuCl2 and incubated at room temperature for 15 minutes. The amount of NaOM in each sample of Extracting Solution was then determined at 318 nm by spectrophotometry. The concentration of the NaOM adsorbed into the nail was determined from the standard curve.

[3] = Penetration of hydroxypyridine-2-thione zinc (PT) into minced human fingernail clips (incubation, 30% DMSO extraction, absorption at 318 nm); assay type: in vitro ADME
Description: These studies measured the penetration of stock solutions of hydroxypyridine-2-thione zinc (PT) in human fingernails.
PT was dissolved in 100% DMSO at a concentration of 2 mg/mL to form a PT stock solution. PT working solution was made by mixing 300 μL of the PT stock solution with 700 μL of water. The final concentration was 0.6 mg/mL (30% DMSO). The nail pieces (0.1 g) were incubated in 1 mL of PT working solution overnight at room temperature. After incubation, the pieces were washed with water three times in a spin column. The pieces were then incubated in 200 μL of 30% DMSO to extract PT for 4 hours at room temperature (“Extracting Solution”).
A standard curve of PT was established by measuring the absorption at 318 nm in 500 μL samples of 30% DMSO containing 0.25, 0.5, 0.75, 1, and 2 μg PT. Standard solutions and subsequent dilutions were prepared as above. The solutions in their desired concentrations were then incubated at room temperature for 5 min prior to spectrophotometric determination.

[4] = 0.6 mg/mL PT working solution (30% DMSO), 0.1 g nail incubated overnight, extracted in 200 μL of 30% DMSO for 4 h

Cc1cc(C2CCCCC2)n(O)c(=O)c1 [Ciclopirox, ciclopirox]
penetration across the layers of the nail (in words) [1]: poor penetration

[Na+].[O-][n+]1ccccc1[S-] [NaOM, Sodium omadine]
NaOM in 0.1 g nail ([2]; Wk Sol Conc 0.01 mg/mL): 1.02 µg | NaOM in 50 μL sample ([2]; Wk Sol Conc 0.01 mg/mL): 0.34 µg | NaOM conc in sample ([2]; Wk Sol Conc 0.01 mg/mL): 7 µg/mL | NaOM in 0.1 g nail ([2]; Wk Sol Conc 0.05 mg/mL): 2.10 µg | NaOM in 50 μL sample ([2]; Wk Sol Conc 0.05 mg/mL): 0.70 µg | NaOM conc in sample ([2]; Wk Sol Conc 0.05 mg/mL): 14 µg/mL | NaOM in 0.1 g nail ([2]; Wk Sol Conc 0.1 mg/mL): 3.99 µg | NaOM in 50 μL sample ([2]; Wk Sol Conc 0.1 mg/mL): 1.33 µg | NaOM conc in sample ([2]; Wk Sol Conc 0.1 mg/mL): 27 µg/mL

[O-]n1ccccc1=S.[O-]n1ccccc1=S.[Zn+2] [PT, hydroxypyridine-2-thione zinc]
concentration of PT in Extracting Solution [3, 4]: 23000 ng/mL | concentration of PT in Extracting Solution (per 50 μL aliquot) [3, 4]: 1.15 μg/50 μL | penetration into fingernails (conclusion in words) ([3]; twelve hours or less incubation time): significant penetration

Source: patent publication US20090192125A1, “Local anti-infective agent for treatment of nail fungal infections” (DermWorx Incorporated, priority 2007, published 2009)
